Measured values from patent US6355799B1, “Substituted benzene compounds, process for their preparation, and herbicidal and defoliant compositions containing them” (ISK Americas Incorporated, priority 1997, dated 2002).

Assays:
Assay type in all cases: in vivo
[1] = test system: redroot pigweed (Amaranthus retroflexus, AMARE); assay: Pre-emerge test, greenhouse herbicide activity screening; settings: rating scale 0-100, 14 days after application
Procedure, shortened: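 Visual ratings on a 0-100 scale (0 no damage, 100 all plants dead) were taken at 14 days after treatment. Rates of 15-1000 g ai/ha in acetone, 187 l/ha, were sprayed onto soil one day after planting (pre-emerge) or onto 2-3 leaf plants with 0.25% v/v surfactant (post-emerge).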

[2] = test system: johnsongrass (Sorghum halepense, SORHA); assay: as above; settings: rating scale 0-100, 14 days after application
Procedure, shortened: (§1)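 Plants grown in 10 cm pots of sandy loam mix received acetone-dissolved compounds through a moving flat-fan nozzle. Doses ranged from 15 to 1000 g ai/ha. Pre-emerge pots were seeded one day earlier, post-emerge pots 8–21 days earlier. Fourteen days on, each pot was graded 0–100 for damage.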

[3] = test system: green foxtail (Setaria viridis, SETVI); assay: as above; settings: rating scale 0-100, 14 days after application
Procedure, shortened: as §1

[4] = test system: ivyleaf morningglory (Ipomoea hederacea, IPOHE); assay: as above; settings: rating scale 0-100, 14 days after application
Procedure, shortened: as §1

[5] = test system: velvetleaf (Abutilon theophrasti, ABUTH); assay: as above; settings: rating scale 0-100, 14 days after application
Procedure, shortened: as §1

[6] = test system: large crabgrass (Digitaria sanguinalis, DIGSA); assay: as above; settings: rating scale 0-100, 14 days after application
Procedure, shortened: as §1

[7] = test system: lambsquarters (Chenopodium album, CHEAL); assay: as above; settings: rating scale 0-100, 14 days after application
Procedure, shortened: as §1

[8] = test system: barnyardgrass (Echinochloa crus-galli, ECHCG); assay: as above; settings: rating scale 0-100, 14 days after application
Procedure, shortened: as §1

[9] = test system: sicklepod (Cassia obtusifolia, CASOB); assay: as above; settings: rating scale 0-100, 14 days after application
Procedure, shortened: as §1

[10] = test system: field corn (Zea mays L., var. Dekalb 535, CORN); assay: Pre-emerge test, crop safety; settings: rating scale 0-100, 14 days after application
Procedure, shortened: as §1

[11] = test system: upland rice (Oryza sp., var. Tebonnet, RICE); assay: Pre-emerge test, crop safety; settings: rating scale 0-100, 14 days after application
Procedure, shortened: as §1

[12] = test system: redroot pigweed (Amaranthus retroflexus, AMARE); assay: Post-emerge test, greenhouse herbicide activity screening; settings: rating scale 0-100 (0 no damage, 100 complete death), 14 days after application
Procedure, shortened: (§2)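 Sandy loam pots; pre-emerge: sown 1 d pre-spray, surface-watered after, then bottom-watered. Post-emerge: sown 8–21 d before, 2–3 leaf stage, + 0.25% v/v NIS, bottom-watered. Acetone, 187 l/ha track spray, 15–1000 g ai/ha. 0–100 injury score, day 14.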

[13] = test system: johnsongrass (Sorghum halepense, SORHA); assay: as above; settings: rating scale 0-100 (0 no damage, 100 complete death), 14 days after application
Procedure, shortened: as §2

[14] = test system: green foxtail (Setaria viridis, SETVI); assay: as above; settings: rating scale 0-100 (0 no damage, 100 complete death), 14 days after application
Procedure, shortened: as §2

[15] = test system: ivyleaf morningglory (Ipomoea hederacea, IPOHE); assay: as above; settings: rating scale 0-100 (0 no damage, 100 complete death), 14 days after application
Procedure, shortened: as §2

[16] = test system: velvetleaf (Abutilon theophrasti, ABUTH); assay: as above; settings: rating scale 0-100 (0 no damage, 100 complete death), 14 days after application
Procedure, shortened: as §2

[17] = test system: large crabgrass (Digitaria sanguinalis, DIGSA); assay: as above; settings: rating scale 0-100 (0 no damage, 100 complete death), 14 days after application
Procedure, shortened: as §2

[18] = test system: lambsquarters (Chenopodium album, CHEAL); assay: as above; settings: rating scale 0-100 (0 no damage, 100 complete death), 14 days after application
Procedure, shortened: as §2

[19] = test system: barnyardgrass (Echinochloa crus-galli, ECHCG); assay: as above; settings: rating scale 0-100 (0 no damage, 100 complete death), 14 days after application
Procedure, shortened: as §2

[20] = test system: sicklepod (Cassia obtusifolia, CASOB); assay: as above; settings: rating scale 0-100 (0 no damage, 100 complete death), 14 days after application
Procedure, shortened: as §2

[21] = test system: field corn (Zea mays L., var. Dekalb 535, CORN); assay: Post-emerge test, crop safety; settings: rating scale 0-100 (0 no damage, 100 complete death), 14 days after application
Procedure, shortened: (§3)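 Each test used a mechanized track sprayer delivering 187 l/ha of acetone solution at 15–1000 g ai/ha. Post-emerge foliage at 2–3 leaves was treated with added 0.25% v/v non-ionic surfactant and bottom-watered only. Injury was assessed on day 14, where 100 means total kill.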

[22] = test system: upland rice (Oryza sp., var. Tebonnet, RICE); assay: Post-emerge test, crop safety; settings: rating scale 0-100 (0 no damage, 100 complete death), 14 days after application
Procedure, shortened: as §3

## C#CCOC(=O)C(Cl)Cc1c(OC)c(Cl)cc(F)c1-n1c(=O)cc(C(F)(F)F)n(C)c1=O (single isomer, unassigned) [14-20]
[1]; 63 g ai/ha
  Pre-emerge herbicidal activity, phytotoxicity rating AMARE: 50
[1]; 250 g ai/ha
  Pre-emerge herbicidal activity, phytotoxicity rating AMARE: 100
[2]; 63 g ai/ha
  Pre-emerge herbicidal activity, phytotoxicity rating SORHA: 0
[2]; 250 g ai/ha
  Pre-emerge herbicidal activity, phytotoxicity rating SORHA: 20
[3]; 63 g ai/ha
  Pre-emerge herbicidal activity, phytotoxicity rating SETVI: 0
[3]; 250 g ai/ha
  Pre-emerge herbicidal activity, phytotoxicity rating SETVI: 30
[4]; 63 g ai/ha
  Pre-emerge herbicidal activity, phytotoxicity rating IPOHE: 0
[4]; 250 g ai/ha
  Pre-emerge herbicidal activity, phytotoxicity rating IPOHE: 0
[5]; 63 g ai/ha
  Pre-emerge herbicidal activity, phytotoxicity rating ABUTH: 0
[5]; 250 g ai/ha
  Pre-emerge herbicidal activity, phytotoxicity rating ABUTH: 90
[6]; 63 g ai/ha
  Pre-emerge herbicidal activity, phytotoxicity rating DIGSA: 0
[6]; 250 g ai/ha
  Pre-emerge herbicidal activity, phytotoxicity rating DIGSA: 90
[7]; 63 g ai/ha
  Pre-emerge herbicidal activity, phytotoxicity rating CHEAL: 0
[7]; 250 g ai/ha
  Pre-emerge herbicidal activity, phytotoxicity rating CHEAL: 80
[8]; 63 g ai/ha
  Pre-emerge herbicidal activity, phytotoxicity rating ECHCG: 0
[8]; 250 g ai/ha
  Pre-emerge herbicidal activity, phytotoxicity rating ECHCG: 40
[9]; 63 g ai/ha
  Pre-emerge herbicidal activity, phytotoxicity rating CASOB: 0
[9]; 250 g ai/ha
  Pre-emerge herbicidal activity, phytotoxicity rating CASOB: 0
[10]; 63 g ai/ha
  Pre-emerge phytotoxicity rating, crop damage CORN: 0
[10]; 250 g ai/ha
  Pre-emerge phytotoxicity rating, crop damage CORN: 50
[11]; 63 g ai/ha
  Pre-emerge phytotoxicity rating, crop damage RICE: 0
[11]; 250 g ai/ha
  Pre-emerge phytotoxicity rating, crop damage RICE: 0
[12]; Rate 63 g ai/ha
  Post-emerge Herbicidal Activity, phytotoxicity rating AMARE: 95
[12]; Rate 250 g ai/ha
  Post-emerge Herbicidal Activity, phytotoxicity rating AMARE: 100
[13]; Rate 63 g ai/ha
  Post-emerge Herbicidal Activity, phytotoxicity rating SORHA: 10
[13]; Rate 250 g ai/ha
  Post-emerge Herbicidal Activity, phytotoxicity rating SORHA: 90
[14]; Rate 63 g ai/ha
  Post-emerge Herbicidal Activity, phytotoxicity rating SETVI: 0
[14]; Rate 250 g ai/ha
  Post-emerge Herbicidal Activity, phytotoxicity rating SETVI: 50
[15]; Rate 63 g ai/ha
  Post-emerge Herbicidal Activity, phytotoxicity rating IPOHE: 50
[15]; Rate 250 g ai/ha
  Post-emerge Herbicidal Activity, phytotoxicity rating IPOHE: 70
[16]; Rate 63 g ai/ha
  Post-emerge Herbicidal Activity, phytotoxicity rating ABUTH: 99
[16]; Rate 250 g ai/ha
  Post-emerge Herbicidal Activity, phytotoxicity rating ABUTH: 100
[17]; Rate 63 g ai/ha
  Post-emerge Herbicidal Activity, phytotoxicity rating DIGSA: 100
[17]; Rate 250 g ai/ha
  Post-emerge Herbicidal Activity, phytotoxicity rating DIGSA: 100
[18]; Rate 63 g ai/ha
  Post-emerge Herbicidal Activity, phytotoxicity rating CHEAL: 80
[18]; Rate 250 g ai/ha
  Post-emerge Herbicidal Activity, phytotoxicity rating CHEAL: 100
[19]; Rate 63 g ai/ha
  Post-emerge Herbicidal Activity, phytotoxicity rating ECHCG: 100
[19]; Rate 250 g ai/ha
  Post-emerge Herbicidal Activity, phytotoxicity rating ECHCG: 100
[20]; Rate 63 g ai/ha
  Post-emerge Herbicidal Activity, phytotoxicity rating CASOB: 0
[20]; Rate 250 g ai/ha
  Post-emerge Herbicidal Activity, phytotoxicity rating CASOB: 50
[21]; Rate 63 g ai/ha
  Post-emerge phytotoxicity rating CORN (crop damage): 0
[21]; Rate 250 g ai/ha
  Post-emerge phytotoxicity rating CORN (crop damage): 80
[22]; Rate 63 g ai/ha
  Post-emerge phytotoxicity rating RICE (crop damage): 0
[22]; Rate 250 g ai/ha
  Post-emerge phytotoxicity rating RICE (crop damage): 10
